This note sets out measurements from patent publication US7879789B2, “Surfactant and composition containing the same” (priority 2006, dated 2011).

The nature of this data set: Emulsion stability of Table 1 blending compositions with various emulsifiers. It counts as physicochemical. The conditions noted are these: storage at low temperature; Table 2. The method, then:
The present inventors have prepared various polyoxyalkylene substitution compounds according to the respective synthesis examples and evaluated the emulsion stability for the blending compositions shown in Table 1. The various evaluation items are as follows. “Emulsion Stability” The oil phase component, water phase component, and various emulsifiers shown in Table 1 were mixed, and the emulsification mixing was carried out with a homomixer at 8000 rpm for 1 minute. The appearance was visually observed 30 minutes after emulsification, and the appearances were also observed after being stored for 3 days on standing at room temperature and also at −5° C., respectively. The evaluation criteria were as follows. • ◯ . . . The emulsion was uniform and milky white. • Δ . . . A small amount of floating oil was observed; however, it was milky white. • X . . . Solid matter was observed, or the separation of the water phase and the oil phase was observed.

For `CCCCCCCCCCCC(=O)N[C@@H](CCC(=O)[O-])C(=O)[O-].[Na+].[Na+]` [1-2, Sodium lauroyl-glutamate], the “emulsion stability at low temperature (in words)” value is given as “the emulsifier separated out”. With `CCCCCCCCCCCCOS(=O)(=O)[O-].[Na+]` [Comparative Examples 1-1, Dodecyl sodium sulfate] the entry was “the emulsifier separated out”.
